In patent US20150329558A1, “FUSED HETEROCYCLIC COMPOUNDS AS ION CHANNEL MODULATORS” (Gilead Sciences, Inc., priority 2011, published 2015):

How the values were obtained:
hNav1.1 = biological target: T1, hNav1.1 (Homo sapiens, UniProt P35498); assay: Nav1.1 use-dependent block, whole-cell voltage clamp; format: cell-based; settings: use-dependent block 10 Hz, read-out: NAv1.1*-CHAN TEST-UDB-10 HZ-
T1 construct: expressed in transfected cells; host or cells: HEK293, transient transfection (α1:β1:β2 = 10:1:1)

Human Nav1.2 = biological target: T2, Human Nav1.2 (Homo sapiens, UniProt Q99250); assay: Nav1.2 use-dependent block, whole-cell voltage clamp; format: cell-based; settings: use-dependent block 10 Hz, read-out: NAv1.2*-CHAN TEST-UDB-10 HZ-
T2 construct: expressed in transfected cells
Source text: Wild-type (WT) cDNA stably transfected in Chinese hamster ovary (CHO) cells is used to record INa. Unless otherwise noted, all reagents are purchased from Sigma-Aldrich (St Louis, Mo., U.S.A.).
Whole-cell voltage-clamp recordings are used to measure the biophysical properties of WT. Briefly, the pipette solution consists of (in mM) 110 CsF, 10 NaF, 20 CsCl, 2 EGTA, 10 HEPES, with a pH of 7.35 and osmolarity of 300 mOsmol/kg. The bath (control) solution contains in (mM): 145 NaCl, 4 KCl, 1.8 CaCl2, 1 MgCl2, 10 dextrose, 10 HEPES, with a pH of 7.35 and osmolarity of 310 mOsmol/kg. Cells are allowed to stabilize for 10 min after establishment of the whole-cell configuration before current is measured. Series resistance is compensated 90% to assure that the command potential is reached within microseconds with a voltage error <2 mV. Leak currents are subtracted by using an online P/4 procedure and all currents are low-pass Bessel filtered at 5 kHz and digitized at 50 kHz.
Tonic block of peak current is measured using a step to −10 mV (20 ms) from a holding potential of −120 mV (0.2 Hz). Use-dependent block of peak current is measured during pulse number 300 of a pulse train (−10 mV, 5 ms, 300 pulses, 10 Hz or 25 Hz) from a holding potential of −120 mV. Two sequential pulse train stimulations are averaged to obtain mean current traces for each recording condition, which are then used for offline subtraction and analysis.
For use-dependent studies, cells are stimulated with depolarizing pulse trains (−10 mV, 5 ms, 300 pulses, 10 and 25 Hz) from a holding potential of −120 mV. Currents are then normalized to the peak current recorded in response to the first pulse in each frequency train. For tonic block studies, peak current is evaluated in response to a 20 ms depolarization to −10 mV (0.2 Hz). Data analysis is performed using Clampfit 9.2 (Axon Instruments, Union City, Calif., U.S.A), Excel 2002 (Microsoft, Seattle, Wash., U.S.A.), and OriginPro 7.0 (OriginLab, Northampton, Mass., U.S.A) software. Results are presented as mean±SEM.
A stock solution of 10 mM compound of Formula I is prepared in 0.1 M HCl or DMSO. A fresh dilution of the compound of Formula I in the bath solution is prepared every experimental day and the pH is readjusted to 7.35 as necessary. The final DMSO concentration was kept at 0.1% in all solutions. Direct application of the perfusion solution to the clamped cell is achieved using the Perfusion Pencil system (Automate, Berkeley, Calif.). Direct cell perfusion is driven by gravity at a flow rate of 350 μL/min using a 250 micron tip. This system sequesters the clamped cell within a perfusion stream and enables complete solution exchange within 1 second. The clamped cell is perfused continuously starting immediately after establishing the whole-cell configuration. Control currents are measured during control solution perfusion.
Solutions are perfused for three minutes prior to current recordings to allow equilibrium (tonic) drug block. Tonic block of peak currents is measured from this steady-state condition. Three sequential current traces are averaged to obtain a mean current for each recording. The mean current traces are utilized for offline analysis. Use-dependent block of peak current is measured during pulse number 300 of the pulse train, (−10 mV, 5 ms, 300 pulses, 10 Hz) from a holding potential of −120 mV. Two sequential pulse train stimulations are averaged to obtain mean current traces for each recording condition, which are then used for offline subtraction and analysis. Where appropriate, concentration inhibition curves are fit with the Hill equation: I/Imax=1/[1+10̂(log IC50−I)*k], where IC50 is the concentration that produces half inhibition and k is the Hill slope factor.

T2 sequence (Q99250 whole entry): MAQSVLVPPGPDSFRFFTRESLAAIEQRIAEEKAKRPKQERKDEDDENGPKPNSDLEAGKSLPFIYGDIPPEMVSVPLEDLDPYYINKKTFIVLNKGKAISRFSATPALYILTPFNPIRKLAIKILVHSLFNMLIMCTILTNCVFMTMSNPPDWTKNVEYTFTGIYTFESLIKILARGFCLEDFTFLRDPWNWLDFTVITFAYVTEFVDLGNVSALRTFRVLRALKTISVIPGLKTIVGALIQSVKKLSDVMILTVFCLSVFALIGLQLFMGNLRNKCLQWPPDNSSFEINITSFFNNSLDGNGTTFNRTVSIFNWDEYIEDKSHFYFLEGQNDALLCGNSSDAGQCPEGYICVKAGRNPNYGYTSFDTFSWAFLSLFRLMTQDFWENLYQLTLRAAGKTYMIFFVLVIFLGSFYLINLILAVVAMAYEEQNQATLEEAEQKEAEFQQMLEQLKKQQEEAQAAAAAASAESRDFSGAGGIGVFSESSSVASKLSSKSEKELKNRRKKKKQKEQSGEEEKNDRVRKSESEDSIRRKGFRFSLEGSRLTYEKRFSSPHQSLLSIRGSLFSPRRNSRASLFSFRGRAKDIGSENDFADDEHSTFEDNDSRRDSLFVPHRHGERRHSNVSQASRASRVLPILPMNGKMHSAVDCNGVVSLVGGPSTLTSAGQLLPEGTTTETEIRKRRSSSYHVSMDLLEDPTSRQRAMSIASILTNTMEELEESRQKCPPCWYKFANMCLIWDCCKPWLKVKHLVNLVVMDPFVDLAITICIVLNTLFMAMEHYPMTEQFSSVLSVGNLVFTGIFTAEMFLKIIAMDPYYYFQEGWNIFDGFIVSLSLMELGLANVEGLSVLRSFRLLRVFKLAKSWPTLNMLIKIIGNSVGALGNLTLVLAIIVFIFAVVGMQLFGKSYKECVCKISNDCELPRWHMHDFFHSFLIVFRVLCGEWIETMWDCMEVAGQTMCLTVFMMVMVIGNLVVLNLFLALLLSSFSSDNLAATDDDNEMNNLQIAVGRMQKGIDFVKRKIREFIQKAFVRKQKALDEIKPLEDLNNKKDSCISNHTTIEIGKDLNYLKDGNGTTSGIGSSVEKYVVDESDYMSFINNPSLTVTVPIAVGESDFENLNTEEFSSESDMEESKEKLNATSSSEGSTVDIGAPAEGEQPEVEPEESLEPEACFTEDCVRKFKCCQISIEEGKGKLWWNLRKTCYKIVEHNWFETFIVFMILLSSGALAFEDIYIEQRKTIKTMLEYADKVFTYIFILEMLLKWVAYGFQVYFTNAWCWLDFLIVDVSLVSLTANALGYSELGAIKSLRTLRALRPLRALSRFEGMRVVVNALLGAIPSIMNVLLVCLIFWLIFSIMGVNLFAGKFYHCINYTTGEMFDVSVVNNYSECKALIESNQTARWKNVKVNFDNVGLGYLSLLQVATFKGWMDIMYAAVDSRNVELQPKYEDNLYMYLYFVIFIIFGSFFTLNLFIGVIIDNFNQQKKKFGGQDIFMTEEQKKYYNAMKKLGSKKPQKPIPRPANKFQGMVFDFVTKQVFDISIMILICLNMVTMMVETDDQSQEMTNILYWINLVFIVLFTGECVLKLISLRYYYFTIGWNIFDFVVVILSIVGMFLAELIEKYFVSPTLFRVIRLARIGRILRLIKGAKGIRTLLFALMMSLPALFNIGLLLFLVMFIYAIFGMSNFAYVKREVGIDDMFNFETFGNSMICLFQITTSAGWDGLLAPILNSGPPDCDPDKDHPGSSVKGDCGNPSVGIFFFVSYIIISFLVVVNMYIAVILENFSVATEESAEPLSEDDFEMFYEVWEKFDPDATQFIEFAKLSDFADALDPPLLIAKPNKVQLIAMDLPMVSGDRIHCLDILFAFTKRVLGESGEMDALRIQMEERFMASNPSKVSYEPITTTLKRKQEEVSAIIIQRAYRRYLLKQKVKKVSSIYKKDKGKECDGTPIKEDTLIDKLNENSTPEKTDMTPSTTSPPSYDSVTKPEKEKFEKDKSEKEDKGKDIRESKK

| SMILES | inhibition at 1 µM (hNav1.1) [%] | inhibition at 1 µM (Human Nav1.2) [%] |
| --- | --- | --- |
| O=c1c2cc(-c3ccc(OC(F)(F)F)cc3)ccc2cnn1CCOc1ncccn1 [III-28, 2-(2-(pyrimidin-2-yloxy)ethyl)-7-(4-(trifluoromethoxy)phenyl)phthalazin-1 (2H)-one] | 40.5 | 28.8 |
| O=C(c1cccnn1)N1CCc2ccc(-c3ccc(C(F)(F)F)cc3)cc2C1 [IX-17, Pyridazin-3-yl(7-(4-(trifluoromethyl)phenyl)-3,4-dihydroisoquinolin-2 (1H)-yl) methanone] | 1.5 | 10.4 |
| O=c1c2cc(-c3ccc(OC(F)(F)F)cc3)ccc2nnn1CCOc1ncccn1 [II-32, 3-(2-(pyrimidin-2-yloxy)ethyl)-6-(4-(trifluoromethoxy)phenyl)benzo[d][1,2,3]triazin-4(3H)-one] | 21 | 16.9 |
| O=C1c2cc(-c3ccc(C(F)(F)F)cc3)ccc2OCN1Cc1ccccn1 [VIII-1, 3-(pyridin-2-ylmethyl)-6-(4-(trifluoromethyl)phenyl)-2H-benzo[e][1,3]oxazin-4(3H)-one] | 4.4 | 16 |
| O=c1c2cc(-c3ccc(OC(F)(F)F)cc3)ccc2nnn1C1CCNCC1 [II-38, 3-(piperidin-4-yl)-6-(4-(trifluoromethoxy)phenyl)benzo[d][1,2,3]triazin-4(3H)-one] | -1 | 8 |
| O=C(c1ncccn1)N1CCc2ccc(-c3ccc(C(F)(F)F)cc3)cc2C1 [IX-7, pyrimidin-2-yl(7-(4-(trifluoromethyl)phenyl)-3,4-dihydroisoquinolin-2(1H)-yl)methanone] | 2.02 | 8.62 |
| CC1Oc2ccc(-c3ccc(OC(F)(F)F)cc3)cc2C(=O)N1Cc1ncccn1 (stereo not shown) [VIII-7, 2-methyl-3-(pyrimidin-2-ylmethyl)-6-(4-(trifluoromethoxy)phenyl)-2H-benzo[e][1,3]oxazin-4(3H)-one] | 12.1 | 18.2 |
| COc1cc(OC)nc(Cn2ncc3ccc(-c4ccc(OC(F)(F)F)cc4)cc3c2=O)n1 [III-19, 2-((4,6-dimethoxypyrimidin-2-yl)methyl)-7-(4-(trifluoromethoxy)phenyl)phthalazin-1 (2H)-one] | 19.3 | -6 |
| Cc1noc(Cn2nnc3ccc(-c4ccc(OC(F)(F)F)cc4)cc3c2=O)n1 [II-3, 3-((3-methyl-1,2,4-oxadiazol-5-yl)methyl)-6-(4-(trifluoromethoxy)phenyl)benzo[d][1,2,3]triazin-4(3H)-one] | -6 | -3.2 |
| O=C1c2cc(-c3ccc(C(F)(F)F)cc3)ccc2CCN1Cc1ncccn1 [IX-3, 2-(pyrimidin-2-ylmethyl)-7-(4-(trifluoromethyl)phenyl)-3,4-dihydroisoquinolin-1(2H)-one] | 2.9 | -4.1 |
| Cn1cnc(C(=O)N2CCc3ccc(-c4ccc(C(F)(F)F)cc4)cc3C2)c1 [IX-39, (1-methyl-1H-imidazol-4-yl)(7-(4-(trifluoromethyl)phenyl)-3,4-dihydroisoquinolin-2(1H)-yl)methanone] | 1.5 | 16.8 |
| O=c1c2cc(-c3ccc(OC(F)(F)F)cc3)ccc2cnn1Cc1ncccn1 [III-5, 2-(pyrimidin-2-ylmethyl)-7-(4-(trifluoromethoxy)phenyl)phthalazin-1(2H)-one] | 9.3 | 5.5 |
| Cc1nc(Cn2cnc3ccc(-c4ccc(OC(F)(F)F)cc4)cc3c2=O)no1 [IV-9, 3-((5-methyl-1,2,4-oxadiazol-3-yl)methyl)-6-(4-(trifluoromethoxy)phenyl)quinazolin-4(3H)-one] | -6.5 | 8 |
| O=C1c2cc(-c3ccc(OC(F)(F)F)cc3)ccc2CCN1Cc1ncccn1 [IX-1, 2-(pyrimidin-2-ylmethyl)-7-(4-(trifluoromethoxy)phenyl)-3,4-dihydroisoquinolin-1(2H)-one] | -5.9 | 3.8 |
| O=C1c2cc(-c3ccc(OC(F)(F)F)cc3)ccc2OCN1Cc1ccccn1 [VIII-3, 3-(pyridin-2-ylmethyl)-6-(4-(trifluoromethoxy)phenyl)-2H-benzo[e][1,3]oxazin-4(3H)-one] | 3.1 | 11.7 |
| O=c1c2cc(-c3ccc(OC(F)(F)F)cc3)ccc2cnn1CCn1cccn1 [III-9, 2-(2-(1H-pyrazol-1-yl)ethyl)-7-(4-(trifluoromethoxy)phenyl)phthalazin-1(2H)-one] | 7.1 | 3.5 |
| O=C1c2cc(-c3ccc(OC(F)(F)F)cc3)ccc2OCN1Cc1ncccn1 [VIII-20, 3-(pyrimidin-2-ylmethyl)-6-(4-(trifluoromethoxy)phenyl)-2H-benzo[e][1,3]oxazin-4(3H)-one] | 11 | 17.6 |
| Cc1ncc(Cn2nnc3ccc(-c4ccc(OC(F)(F)F)cc4)cc3c2=O)o1 [II-95, 3-((2-methyloxazol-5-yl)methyl)-6-(4-(trifluoromethoxy)phenyl)benzo[d][1,2,3]triazin-4(3H)-one] | -0.5 | -8.2 |
| N#Cc1ccnc(OCCn2nnc3ccc(-c4ccc(OC(F)(F)F)cc4)cc3c2=O)n1 [II-36, 2-(2-(4-oxo-6-(4-(trifluoromethoxy)phenyl)benzo[d][1,2,3]triazin-3(4H)-yl)ethoxy)pyrimidine-4-carbonitrile] | 7.9 | 10.9 |
| Cc1noc(Cn2cnc3ccc(-c4ccc(OC(F)(F)F)cc4)cc3c2=O)n1 [IV-6, 3-((3-methyl-1,2,4-oxadiazol-5-yl)methyl)-6-(4-(trifluoromethoxy)phenyl)quinazolin-4(3H)-one] | 3.1 | 7.1 |
